In patent US9856480B2, “Dnazyme for silencing the expression of EGFR” (DCB-USA LLC, priority 2013, dated 2018):
Strand notation (5' to 3'): a small letter for the sugar, then the base; units joined by * are phosphorothioate-linked, units joined directly phosphodiester-linked; [ ] holds rarer units or linkages, { } end groups; capitals alone tell only the bases. d = 2'-deoxy (DNA)

Columns and labels:
[1] = tested on: cleaved PARP; experiment: Immunoblotting against cleaved form of PARP; format: cell-based, human; conditions: H1975 and CL97 cells; 100 nM
Procedure: A549, CL1-5, H1975, or CL97 was seeded onto 6-well at 3×10^5 cells/well and cultured overnight. Then, cells were separately treated with 100 nM DzControl or DzT790M-1 with lipofectamine 2000 (Invitrogen). The transfected A549 and CL1-5 cells were serum-starved for 24 h and treated with 100 ng/ml of EGF at 37° C. for 15 min. 72 h after transfection, cell were collected for analysis. Cells were washed twice by ice-cold PBS and then total protein was extracted by RIPA buffer with protease inhibitor (Roche). 50 μg of total protein from the supernatants were boiled for 5 min at 95° C. The samples were resolved on 10% SDS-PAGE gel and transferred onto nitrocellulose membranes. EGFR expression and downstream signaling were detected by using primary antibodies specific to human pEGFR(Y1068) (Cell signaling), tEGFR (Santa Cruz), pSTAT3 (Y705) (Cell signaling), tSTAT3 (Cell signaling), pAKT (5473)(Cell signaling), tAKT (Santa Cruz), pERK (T202/Y204) (Cell signaling), tERK (Santa Cruz), and cleaved PARP (Cell signaling) at 1:1000 dilution and β-actin (Santa Cruz) at 1:10000 dilution, respectively. […]
EGFR and downstream signaling pathway regulates important cell functions including cell proliferation and survival. In order to examine functional effects of DzT790M-1 on cell survival, the number of cells was counted after DzControl or DzT790M-1 transfection respectively. […]

[2] = tested on: wild-type EGFR; experiment: Western immunoblotting of EGFR expression and downstream signaling in wild-type EGFR cell lines; format: cell-based, human; conditions: A549 and CL1-5 cells, 100 nM
Procedure: A549, CL1-5, H1975, or CL97 was seeded onto 6-well at 3×10^5 cells/well and cultured overnight. Then, cells were separately treated with 100 nM DzControl or DzT790M-1 with lipofectamine 2000 (Invitrogen). The transfected A549 and CL1-5 cells were serum-starved for 24 h and treated with 100 ng/ml of EGF at 37° C. for 15 min. 72 h after transfection, cell were collected for analysis. Cells were washed twice by ice-cold PBS and then total protein was extracted by RIPA buffer with protease inhibitor (Roche). 50 μg of total protein from the supernatants were boiled for 5 min at 95° C. The samples were resolved on 10% SDS-PAGE gel and transferred onto nitrocellulose membranes. EGFR expression and downstream signaling were detected by using primary antibodies specific to human pEGFR(Y1068) (Cell signaling), tEGFR (Santa Cruz), pSTAT3 (Y705) (Cell signaling), tSTAT3 (Cell signaling), pAKT (5473)(Cell signaling), tAKT (Santa Cruz), pERK (T202/Y204) (Cell signaling), tERK (Santa Cruz), and cleaved PARP (Cell signaling) at 1:1000 dilution and β-actin (Santa Cruz) at 1:10000 dilution, respectively. Secondary antibodies against rabbit IgG or mouse IgG was used at 1:5000 dilution. Protein bands on membrane were visualized by exposure to the chemiluminescence substrate.
EGFR belongs to receptor tyrosine kinases. The binding of its extracellular ligands triggers receptor dimerization, tyrosine residues phosphorylation, and downstream signaling activation including signal transducer and activator of transcription 3 (STAT3), Akt, extracellular signal regulated kinases (ERK), and others. To examine the effects of DzT790M on protein expression level of EGFR and its downstream signaling, western immunoblotting was performed on DzT790M transfected cells. A549, CL1-5, H1975, or CL97 was seeded onto 6-well at 3×10^5 cells/well and cultured overnight. Then, cells were separately treated with 100 nM DzControl or DzT790M-1 with lipofectamine 2000 (Invitrogen). The transfected A549 and CL1-5 cells were serum-starved for 24 h and treated with 100 ng/ml of EGF at 37° C. for 15 min. 72 h after transfection, cell were collected for analysis. Cells were washed twice by ice-cold PBS and then total protein was extracted by RIPA buffer with protease inhibitor (Roche). […] Also, activation of downstream STAT3, AKT, and ERK signaling after EGF treatment were not inhibited by DzT790M-1 or DzT790M-2 transfection.
CL1-5 (EGFR wild-type) or H1975 (EGFR T790M) were seeded onto 6-well at 3×10^5 cells/well and cultured overnight. […] The transfected CL1-5 cells were serum-starved for 24 h and treated with 100 ng/ml of EGF at 37° C. for 15 min. 72 h after transfection, cells were collected for western blotting analysis following the above mentioned procedure. […]

[3] = tested on: EGFR T790M; experiment: Western immunoblotting of EGFR expression and downstream signaling in EGFR T790M mutant cell lines; conditions: 100 nM
Procedure: (§3) Cells were harvested 72 h after transfecting with 100 nM DzC or DzT. 100 ng/ml EGF were added into culture medium 15 min before cell lysates were harvested. Cell lysates were analyzed by immunoblotting with indicated primary antibodies.
(§4) Cells were harvested 72 h after transfecting with 100 nM cDzC or cDzT. 100 ng/ml EGF were added into culture medium 15 min before cell lysates were harvested. Cell lysates were analyzed by immunoblotting with indicated primary antibodies.
(§5) A549, CL1-5, H1975, or CL97 was seeded onto 6-well at 3×10^5 cells/well and cultured overnight. […] The transfected A549 and CL1-5 cells were serum-starved for 24 h and treated with 100 ng/ml of EGF at 37° C. for 15 min. 72 h after transfection, cell were collected for analysis. Cells were washed twice by ice-cold PBS and then total protein was extracted by RIPA buffer with protease inhibitor (Roche). 50 μg of total protein from the supernatants were boiled for 5 min at 95° C. The samples were resolved on 10% SDS-PAGE gel and transferred onto nitrocellulose membranes. […] Secondary antibodies against rabbit IgG or mouse IgG was used at 1:5000 dilution. Protein bands on membrane were visualized by exposure to the chemiluminescence substrate.
(§6) To examine the effects of DzT790M on protein expression level of EGFR and its downstream signaling, western immunoblotting was performed on DzT790M transfected cells. A549, CL1-5, H1975, or CL97 was seeded onto 6-well at 3×10^5 cells/well and cultured overnight. […] The transfected A549 and CL1-5 cells were serum-starved for 24 h and treated with 100 ng/ml of EGF at 37° C. for 15 min. 72 h after transfection, cell were collected for analysis. Cells were washed twice by ice-cold PBS and then total protein was extracted by RIPA buffer with protease inhibitor (Roche).
(§7) The transfected CL1-5 cells were serum-starved for 24 h and treated with 100 ng/ml of EGF at 37° C. for 15 min. 72 h after transfection, cells were collected for western blotting analysis following the above mentioned procedure. Expression of EGFR and downstream signaling were examined by primary antibodies against human pEGFR (Y1068), tEGFR, pSTAT3 (Y705), tSTAT3, pAKT (S473), tAKT, pERK (T202/Y204), and tERK at 1:1000 dilution and β-actin at 1:10000 dilution, respectively.
(§8) H1975 was seeded onto 6-well at 3×10^5 cells/well and cultured overnight. […] 72 h after transfection, cells were collected for western blotting analysis following the above mentioned procedure. Expression of EGFR and downstream signaling were examined by primary antibodies against human pEGFR(Y1068), tEGFR, pSTAT3 (Y705), tSTAT3, pAKT (S473), tAKT, pERK (T202/Y204), and tERK at 1:1000 dilution and β-actin at 1:10000 dilution, respectively.
(§9) H1975^TM/LR and CL97^TM/GA cells were harvested 72 h after transfecting with DzC or DzT. […]

[4] = molecular target: EGFR T790M (Homo sapiens, UniProt P00533, L858R/T790M); experiment: as above; conditions: H1975^TM/LR; 100 nM; 72 h; 100 ng/ml EGF 15 min
Procedure: as §3, §4, §5, §6, §7, §8, §9

[5] = tested on: A549 cells (EGFR wild-type); experiment: Cell proliferation assay (cell counting); format: cell-based, human; conditions: 100 nM, 0-72 h after transfection
Procedure: (§1) A549, CL1-5, H1975, or CL97 was seeded onto 6-well and cultured overnight. Then, cells were separately treated with 100 nM DzControl or DzT790M-1 with lipofectamine 2000 (Invitrogen). Cells were trypsinized and counted at 0 h, 24 h, 48 h, or 72 h after transfection.
(§2) EGFR and downstream signaling pathway regulates important cell functions including cell proliferation and survival. In order to examine functional effects of DzT790M-1 on cell survival, the number of cells was counted after DzControl or DzT790M-1 transfection respectively. In A549 and CL1-5 cells (EGFR wild-type), the rate of cell proliferation or the cell number was not different between DzControl and DzT790M-1 transfected group (FIGS. 4A and 4B). In H1975 and CL97 cells (EGFR T790M), DzControl transfected cells were continued to grow after transfection when the number of DzT790M-1 treated cells was reduced (FIGS. 4C and 4D). In order to figure out whether DzT790M-1 treated cells undergoes cell apoptosis, immunoblotting against cleaved form of PARP and immunostaining of annexin V and PI were performed. The cleavage of PARP is caused by increased activity of caspase-3 and serves as a marker for cell apoptosis. […] While only 3.6% of cells underwent apoptosis and 12.4% of cells were dead in DzControl transfected H1975 cells, 18.6% of cells were detected as apoptotic cells and 32.6% of cells were annexin V and PI double positive in DzT790M-1 treated group (FIG. 4F).

[6] = tested on: CL1-5 cells (EGFR wild-type); experiment: Cell proliferation assay (cell counting); format: cell-based, human; conditions: 100 nM, 0-72 h after transfection
Procedure: as §1, §2

[7] = tested on: H1975 cells (EGFR T790M); experiment: Cell proliferation assay (cell counting); format: cell-based, human; conditions: 100 nM, 0-72 h after transfection
Procedure: as §1, §2

[8] = tested on: CL97 cells (EGFR T790M); experiment: Cell proliferation assay (cell counting); format: cell-based, human; conditions: 100 nM, 0-72 h after transfection
Procedure: as §1, §2

Substance: DzT790M-1: 10-23 DNAzyme against EGFR T790M mRNA, arms 10/4, phosphorothioate ends: AGCTGCATGAGGCTAGCTACAACGAGAGC (DNA dA*dGdCdTdGdCdAdTdGdAdGdGdCdTdAdGdCdTdAdCdAdAdCdGdAdGdAdG*dC; further chemistry not fully specified)
- level of cleaved PARP compared to DzControl treated group [1]: increased level
- activation of downstream STAT3, AKT, and ERK signaling after EGF treatment ([2]; 100 ng/ml EGF 15 min): not inhibited
- protein level of EGFR compared to DzControl group ([2]; 72 h after transfection): did not decreased
- phosphorylation of EGFR Y1068, STAT3 Y705, AKT S473 and ERK T202/Y204 ([3]; H1975 and CL97 cells, 72 h, ERK not in H1975 cells): decreased phosphorylation
- EGFR protein expression ([3]; H1975 and CL97 cells, 72 h after transfection): significantly silenced
- EGFR T790M expression and downstream signaling after EGF treatment ([3]; T790M mutant cells, 72 h, 100 ng/ml EGF 15 min): remains its suppression effect
- EGFR protein expression and downstream signaling including EGFR, STAT3, and ERK after EGF treatment [4]: remained its suppression effect
- rate of cell proliferation or cell number vs DzControl transfected group [5]: not different
- rate of cell proliferation or cell number vs DzControl transfected group [6]: not different
- number of cells after transfection [7]: reduced
- number of cells after transfection [8]: reduced
